# Measured values taken from patent publication US12179400B2, “Multiple-matrix monolithic moulded part for the diffusion of active ingredients and method for obtaining same” (AB7 Innovation S.A.S.U., priority 2017, dated 2024).
# Experiments:
# Type in all cases: physicochemical
# [1] = In vitro release profile in plant oil from antiparasitic TPU (EPAMOULD) collar; settings: for release profile: bi-injected collar: one matrix 8% permethrin in 5% SANTICIZER 141, other matrix 4% deltamethrin in 22% SANTICIZER 141; for amount released after 15 days: single EPAMOULD matrix with 8% permethrin and 4% deltamethrin, both in 22% SANTICIZER 141
# Procedure: 8% permethrin is solubilized in 22% of SANTICIZER 141® Then, 4% deltamethrin is added, before adding the homogeneous mixture in a single EPAMOULD® matrix.
# FIG. 3: In vitro release profile in the plant oil from the pest control collar containing 8% permethrin and 4% deltamethrin, both solubilized in 22% SANTICIZER 141®
# Therefore, the same amount (8%) of permethrin was solubilized in 5% SANTICIZER® 141 prior to incorporation into a EPAMOULD® matrix as above, in order to obtain a permethrin compound. In parallel, the same quantity of deltamethrin (4%) solubilized in 22% of SANTICIZER® 141 was mixed, prior to incorporation into a EPAMOULD® matrix, in order to obtain a deltamethrin compound.
# The two compounds obtained are injected simultaneously in a collar using the bi-injection press as described in Example 1.
# FIG. 4: In vitro release profile in plant oil of the antiparasitic collar obtained by bi-injection including a matrix containing 8% of permethrin solubilized in 5% of SANTICIZER 141® and the other matrix containing 4% of deltamethrin dissolved in 22% of SANTICIZER 141®.
# [2] = GPC assay of active ingredients (repellent tracers) in EVA collars at T0 after injection and after 7 days of stability at 50° C.; settings: for cumulative loss: collar (C1), T0 loss plus loss after 7 days at 50° C.; for Active ingredient loss (%): EVA
# Procedure: In a 1 L beaker, 200 g of vitamin F, 160 g of Mentha pulegium essential oil, 31.2 g of eucalyptus essential oil, 8 g of lemongrass essential oil and 0.8 g of geraniol are mixed. The mixture is stirred lightly until a homogeneous liquid mixture is obtained.
# 3519.2 g of EVA are introduced into a cylindrical mixer preheated to 70° C. Then, the above homogeneous liquid mixture is slowly introduced. The mixture is left to be stirred gently until dry granules are obtained. 80 g of pistachio green dye are added and then mixed for 5 minutes. A compound is obtained consisting of EVA polymers loaded with 11.1% by weight of all the active ingredients combined, or 5.5% by weight of vitamin F and 5.6% by weight of repellents.
# The above compound is injected into a collar 60 cm long by 1 cm wide and weighing 25 g.
# The collars (C1) thus obtained were analyzed by GPC assay of the active ingredients contained in the matrix at time zero (T0) after injection, then after 7 days of stability at 50° C. in watertight-sealed packaging.
# In parallel, by proceeding according to the same protocol, vitamin F was replaced by coconut oil, in the same proportions, then the corresponding collar compound (C2) was injected. The analyses by GPC assay of the collars (C2) gave the results recorded in Table 2. […]
# [3] = Release profile at room temperature of active ingredient incorporated at 10% into polymer matrix bracelets; settings: for release profile: 10% loading
# Procedure: Studies carried out by the inventors have made it possible to prepare the release profiles of limonene as a function of the polymers used, namely PEBA, EVA and the bio-based polyethylene (PE) copolymer. Compounds loaded with 10% limonene were injected in a bracelet.
# FIG. 1: release profile at room temperature of limonene incorporated at 10% into different polymer matrices.
# 10% essential oil of Eucalyptus radiata has been incorporated into an EVA polymer matrix.
# FIG. 2: release profile at room temperature of Eucalyptus radiata essential oil incorporated at 10% into an EVA matrix
# [4] = collars (C1), 5.5% Vitamin F and 5.6% repellents, at T0 after injection
# [5] = collars (C1), 5.5% Vitamin F and 5.6% repellents, at T = 7 days at 50° C., watertight-sealed packaging
# [6] = collars (C2), 5.5% coconut and 5.6% repellents, at T0 after injection
# [7] = collars (C2), 5.5% coconut and 5.6% repellents, at T = 7 days at 50° C.
# [8] = PEBA bracelet loaded with 10% limonene
Compound,cumulative loss [2] [%],"Active ingredient loss (%) [2, 4] [%]","Active ingredient loss (%) [2, 5] [%]","Active ingredient loss (%) [2, 6] [%]","Active ingredient loss (%) [2, 7] [%]",also measured
CC1(C)[C@H](C(=O)O[C@H](C#N)c2cccc(Oc3ccccc3)c2)[C@@H]1C=C(Br)Br [deltamethrin],,,,,,release profile [1]: substantially similar release profile; amount released after 15 days [1]: 18%
CC1(C)C(C=C(Cl)Cl)C1C(=O)OCc1cccc(Oc2ccccc2)c1 (centres unmarked) [permethrin],,,,,,release profile [1]: substantially similar release profile; amount released after 15 days [1]: 52%
CC(C)=C1CC[C@@H](C)CC1=O [Pulegone],,11,10,0,0,
"C=C(C)[C@H]1CC=C(C)CC1 [limonene, Limonene]",,,,,,"release profile ([3]; EVA matrix): releases gradually; amount released after 2 days [3, 8]: 70%; time until bracelet empty [3, 8]: 6 days; release profile ([3]; PEBA bracelet): very quickly and in a significant quantity; release profile ([3]; bio-based polyethylene (PE) copolymer bracelet): retains; remaining amount after 10 days ([3]; incorporated at 10% into EVA matrix): 42%"

# Now from value to molecule, other results behind:
cumulative loss [2] [%],"Active ingredient loss (%) [2, 4] [%]","Active ingredient loss (%) [2, 5] [%]","Active ingredient loss (%) [2, 6] [%]","Active ingredient loss (%) [2, 7] [%]",Compound,also measured
50,12,38,0,3,CC(C)=CCCC(C)CC=O (centres unmarked) [Citronellal],"Active ingredient loss (%) ([2]; collars (C1), 5.5% Vitamin F and 5.6% repellents, at T0 after injection, listed as citronellal): 12%; Active ingredient loss (%) ([2]; collars (C1), 5.5% Vitamin F and 5.6% repellents, at T = 7 days at 50° C., watertight-sealed packaging, listed as citronellal): 38%; Active ingredient loss (%) ([2]; collars (C2), 5.5% coconut and 5.6% repellents, at T = 7 days at 50° C., listed as citronellal): 3%"
16,12,4,0,0,CC12CCC(CC1)C(C)(C)O2 [Cineole],"Active ingredient loss (%) ([2]; collars (C1), 5.5% Vitamin F and 5.6% repellents, at T0 after injection, listed as cineole): 12%; Active ingredient loss (%) ([2]; collars (C1), 5.5% Vitamin F and 5.6% repellents, at T = 7 days at 50° C., watertight-sealed packaging, listed as cineole): 4%"
36,6,30,0,0,"CC(C)=CCC/C(C)=C/CO [Geraniol, geraniol]","Active ingredient loss (%) ([2]; collars (C1), 5.5% Vitamin F and 5.6% repellents, at T0 after injection, listed as geraniol): 6%; Active ingredient loss (%) ([2]; collars (C1), 5.5% Vitamin F and 5.6% repellents, at T = 7 days at 50° C., watertight-sealed packaging, listed as geraniol): 30%"
27,7,20,3,0,CC(C)=CCCC(C)CCO (centres unmarked) [Citronellol],"Active ingredient loss (%) ([2]; collars (C1), 5.5% Vitamin F and 5.6% repellents, at T0 after injection, listed as citronellol): 7%; Active ingredient loss (%) ([2]; collars (C1), 5.5% Vitamin F and 5.6% repellents, at T = 7 days at 50° C., watertight-sealed packaging, listed as citronellol): 20%; Active ingredient loss (%) ([2]; collars (C2), 5.5% coconut and 5.6% repellents, at T0 after injection, listed as citronellol): 3%"
